Results on 18 molecules are retold here after patent US12673954B2 (BRISTOL-MYERS SQUIBB COMPANY, priority 2021, dated 2026).

Where two headings read alike, the source gives them in different places.

The subject of experiment [1] is NF-κB pathway, THP1-Dual™ cells. As to the kind of experiment: STING reporter assay in THP1-Dual cells, NF-κB pathway (SEAP, QUANTI-Blue). Conditions: THP1-Dual cells, 10% human plasma, 20 hours, SEAP, 100% activation = 100 μM cGAMP, read-out: NFkB (EC50 μM). It counts as cell-based, human. An excerpt: (§1) THP1-Dual™ cells were derived from the human THP-1 monocyte cell line by stable integration of two inducible reporter constructs. To this end, THP1-Dual™ cells allow the simultaneous study of the NF-κB pathway, by monitoring the activity of SEAP, and the IRF pathway by assessing the activity of a secreted luciferase (Lucia). Both reporter proteins are readily measurable in the cell culture supernatant when using QUANTI-Blue™, a SEAP detection reagent, and QUANTI-Luc™, a luciferase detection reagent.
(§2) THP1-Dual™ cells induce the activation of NF-κB in response to STING agonists. They also trigger the IRF pathway upon stimulation with STING agonists, such as cGAMP. Here, the THP-1-Dual cells were used to assess STING specific binders for function on the cellular level.
(§3) Serial dilutions of compounds in DMSO were added to low volume 384 well plates at 100 nl/well using an ECHO acoustic dispenser (Labcyte, model 550) to achieve final starting concentration of 100 μM in cell suspension. […] One column of the plate was reserved for treatment with cGAMP at 100 μM for 100% activation calculation and one column for no treatment (DMSO only) for baseline activation. Plates were then incubated in 37° C. incubator at 5% CO2 for 20 hours.
(§4) Plates were read on the Envision (Perkin Elmer) at 620 nm wavelength (OD620). In the luciferase assay, 5 μl of Quantiluc (Invivogen, Rep-qlc2) is added to white 384 well plates seeded with THP1 cells and read at 5 minutes on the Envision (Perkin Elmer) using a luminescence protocol (RLU). 100% activation was determined by value (RLU) of THP-1 Dual STING cells stimulated with 100 μM cGAMP (Invivogen, cat #TLRL-NACGA23-5).
(In general: Reporter assays use an easily measured gene product as a stand-in for the process of interest.)

Experiment [2] relates to IRF pathway, THP1-Dual™ cells. As to the kind of experiment: STING reporter assay in THP1-Dual cells, IRF pathway (Lucia luciferase, QUANTI-Luc). It is filed as cell-based, human. The conditions noted are these: THP1-Dual cells, 10% human plasma, 20 hours, Lucia luciferase, 100% activation = 100 μM cGAMP, read-out: IRF (EC50 μM).
From the text: as §1, §2, §3, §4

In general, EC50 refers to the concentration needed to bring the measured effect to its halfway point. As for `CCOC(OC(=O)c1cc(F)cc2cc(CNC(=O)c3cnn4cccnc34)oc12)C(F)F` (single isomer, unassigned) [EXAMPLE 323, 1-Ethoxy-2,2-difluoroethyl 5-fluoro-2-((pyrazolo[1,5-a]pyrimidine-3-carboxamido)methyl)benzofuran-7-carboxylate], the 50% effective concentration (EC50) in experiment [1] was found to be 0.7 µM; in experiment [2] (Homo sapiens, THP1-Dual, 20 h), 0.75 µM.

As for `CCOC(OC(=O)c1cc(F)cc2cc(CNC(=O)c3cnn4cccnc34)oc12)C(F)F` (single isomer, unassigned) [EXAMPLE 324, 1-Ethoxy-2,2-difluoroethyl 5-fluoro-2-((pyrazolo[1,5-a]pyrimidine-3-carboxamido)methyl)benzofuran-7-carboxylate], the EC50 worked out at 1.7 µM in experiment [1] and 1.5 µM in experiment [2].

`CC(NC(=O)c1cnn2cccnc12)c1cc2cc(F)cc(C(=O)OCC(F)(F)F)c2o1` (single isomer, unassigned) [EXAMPLE 327, 2,2,2-Trifluoroethyl 5-fluoro-2-(1-(pyrazolo[1,5-a]pyrimidine-3-carboxamido)ethyl)benzofuran-7-carboxylate]: the half-maximal effective concentration (EC50) in experiment [1] was found to be 79 µM; in experiment [2], 73 µM.

Turning to `CC(NC(=O)c1cnn2cccnc12)c1cc2cc(F)cc(C(=O)OCC(F)(F)F)c2o1` (single isomer, unassigned) [EXAMPLE 328, 2,2,2-Trifluoroethyl 5-fluoro-2-(1-(pyrazolo[1,5-a]pyrimidine-3-carboxamido)ethyl)benzofuran-7-carboxylate], the 50% effective concentration (EC50) in experiment [1] came out at 1.5 µM; in experiment [2], 1.3 µM.

On to `CC(OC(=O)c1cc(Cl)cc2cc(CNC(=O)c3cnn4cccnc34)oc12)C(F)(F)F` (single isomer, unassigned) [EXAMPLE 329, 1,1,1-Trifluoropropan-2-yl 5-chloro-2-((pyrazolo[1,5-a]pyrimidine-3-carboxamido)methyl)benzofuran-7-carboxylate], for which the EC50 worked out at 0.89 µM in experiment [1] and 0.88 µM in experiment [2].

For the molecule `CC(OC(=O)c1cc(Cl)cc2cc(CNC(=O)c3cnn4cccnc34)oc12)C(F)(F)F` (single isomer, unassigned) [EXAMPLE 330, 1,1,1-Trifluoropropan-2-yl 5-chloro-2-((pyrazolo[1,5-a]pyrimidine-3-carboxamido)methyl)benzofuran-7-carboxylate], the concentration giving a half-maximal response (EC50) in experiment [1] turned out to be 5.5 µM; in experiment [2] it was 4.7 µM.

With `COC(OC(=O)c1cc(Cl)cc2cc(CNC(=O)c3cnn4cccnc34)oc12)C(F)(F)F` (single isomer, unassigned) [EXAMPLE 331, 2,2,2-Trifluoro-1-methoxyethyl 5-chloro-2-((pyrazolo[1,5-a]pyrimidine-3-carboxamido)methyl)benzofuran-7-carboxylate], the EC50 in experiment [1] (Homo sapiens, THP1-Dual, 20 h) stood at 1.8 µM; in experiment [2] (Homo sapiens, THP1-Dual, 20 h), 1.7 µM.

Regarding `COC(OC(=O)c1cc(Cl)cc2cc(CNC(=O)c3cnn4cccnc34)oc12)C(F)(F)F` (single isomer, unassigned) [EXAMPLE 332, 2,2,2-Trifluoro-1-methoxyethyl 5-chloro-2-((pyrazolo[1,5-a]pyrimidine-3-carboxamido)methyl)benzofuran-7-carboxylate], the 50% effective concentration (EC50) in experiment [1] and in experiment [2] was 1.1 µM in each case.

For `O=C(OC1CC(c2ccc(F)cc2)C1)c1cc(Cl)cc2cc(CNC(=O)c3cnn4cccnc34)oc12` (single isomer, unassigned) [EXAMPLE 333, 3-(4-Fluorophenyl)cyclobutyl 5-chloro-2-((pyrazolo[1,5-a]pyrimidine-3-carboxamido)methyl)benzofuran-7-carboxylate], the 50% effective concentration (EC50) in experiment [1] (Homo sapiens, THP1-Dual, 20 h) amounted to 12 µM; in experiment [2] (Homo sapiens, THP1-Dual, 20 h), 11 µM.

As for `O=C(OC1CC(c2ccc(F)cc2)C1)c1cc(Cl)cc2cc(CNC(=O)c3cnn4cccnc34)oc12` (single isomer, unassigned) [EXAMPLE 334, 3-(4-Fluorophenyl)cyclobutyl 5-chloro-2-((pyrazolo[1,5-a]pyrimidine-3-carboxamido)methyl)benzofuran-7-carboxylate], the values for the concentration for a half-maximal effect (EC50) in experiment [1] and in experiment [2] were 23 µM and 16 µM, respectively.

For `CC(CC(F)(F)F)OC(=O)c1cc(Cl)cc2cc(CNC(=O)c3cnn4cccnc34)oc12` (single isomer, unassigned) [EXAMPLE 335, 4,4,4-Trifluorobutan-2-yl 5-chloro-2-((pyrazolo[1,5-a]pyrimidine-3-carboxamido)methyl)benzofuran-7-carboxylate], the concentration for a half-maximal effect (EC50) in experiment [1] (Homo sapiens, THP1-Dual, 20 h) is 3.5 µM; in experiment [2] (Homo sapiens, THP1-Dual, 20 h), 3.5 µM.

As for `CC(CC(F)(F)F)OC(=O)c1cc(Cl)cc2cc(CNC(=O)c3cnn4cccnc34)oc12` (single isomer, unassigned) [EXAMPLE 336, 4,4,4-Trifluorobutan-2-yl 5-chloro-2-((pyrazolo[1,5-a]pyrimidine-3-carboxamido)methyl)benzofuran-7-carboxylate], the EC50 in experiment [1] is 2.5 µM; in experiment [2], 3.2 µM.

For the molecule `COC(OC(=O)c1cc(Br)cc2cc(CNC(=O)c3cnn4cccnc34)oc12)C(F)(F)F` (single isomer, unassigned) [EXAMPLE 339, 2,2,2-Trifluoro-1-methoxyethyl 5-bromo-2-((pyrazolo[1,5-a]pyrimidine-3-carboxamido)methyl)benzofuran-7-carboxylate], the EC50 in experiment [1] (Homo sapiens, THP1-Dual, 20 h) is 1.4 µM; in experiment [2] (Homo sapiens, THP1-Dual, 20 h), 1.8 µM.

Take `COC(OC(=O)c1cc(Br)cc2cc(CNC(=O)c3cnn4cccnc34)oc12)C(F)(F)F` (single isomer, unassigned) [EXAMPLE 340, 2,2,2-Trifluoro-1-methoxyethyl 5-bromo-2-((pyrazolo[1,5-a]pyrimidine-3-carboxamido)methyl)benzofuran-7-carboxylate]: the concentration giving a half-maximal response (EC50) in experiment [1] turned out to be 0.92 µM; in experiment [2], 0.91 µM.

Take `CC(OC(=O)c1cc(Br)cc2cc(CNC(=O)c3cnn4cccnc34)oc12)C(F)(F)F` (single isomer, unassigned) [EXAMPLE 341, 1,1,1-Trifluoropropan-2-yl 5-bromo-2-((pyrazolo[1,5-a]pyrimidine-3-carboxamido)methyl)benzofuran-7-carboxylate]: the concentration giving a half-maximal response (EC50) in experiment [1] worked out at 2.5 µM; in experiment [2] it was 1.6 µM.

In the case of `CC(OC(=O)c1cc(Br)cc2cc(CNC(=O)c3cnn4cccnc34)oc12)C(F)(F)F` (single isomer, unassigned) [EXAMPLE 342, 1,1,1-Trifluoropropan-2-yl 5-bromo-2-((pyrazolo[1,5-a]pyrimidine-3-carboxamido)methyl)benzofuran-7-carboxylate], the concentration giving a half-maximal response (EC50) in experiment [1] worked out at 6 µM; in experiment [2], 7.2 µM.

Take `COC(OC(=O)c1cc(C)cc2cc(CNC(=O)c3cnn4cccnc34)oc12)C(F)(F)F` (single isomer, unassigned) [EXAMPLE 343, 2,2,2-Trifluoro-1-methoxyethyl 5-methyl-2-((pyrazolo[1,5-a]pyrimidine-3-carboxamido)methyl)benzofuran-7-carboxylate]: the EC50 in experiment [1] (Homo sapiens, THP1-Dual, 20 h) is 0.76 µM; in experiment [2] (Homo sapiens, THP1-Dual, 20 h), 0.73 µM.

In the case of `COC(OC(=O)c1cc(C)cc2cc(CNC(=O)c3cnn4cccnc34)oc12)C(F)(F)F` (single isomer, unassigned) [EXAMPLE 344, 2,2,2-Trifluoro-1-methoxyethyl 5-methyl-2-((pyrazolo[1,5-a]pyrimidine-3-carboxamido)methyl)benzofuran-7-carboxylate], the figures for the half-maximal effective concentration (EC50) in experiment [1] and in experiment [2] were 0.76 µM and 0.63 µM, respectively.
